According to US11014911B2, “CDK2 inhibitors” (Pfizer Inc., priority 2019, dated 2021):

Legend:
[1] = target: CDK2/Cyclin E1 full length (Homo sapiens (Human), UniProt P24941); assay: CDK2/Cyclin E1 full length mobility shift assay; assay type: biochemical
Protocol: Cdk2/Cyclin E1 Full Length Mobility Shift Assay
Wild-type CDK2/wild-type full length Cyclin E1 enzyme complex was produced in-house (baculoviral expression, LJIC-2080/LJIC-2103) and phosphorylated by CDK7/Cyclin H1/Matl enzyme complex with CDK2:CDK7 ratio of 50:1 (concentration mg/mL) in the presence of 10 mM MgCl2 and 5 mM ATP at room temperature for one hour. […] The assay was initiated with the addition of ATP, following a fifteen minutes pre-incubation of enzyme and inhibitor at room temperature in the reaction mixture. The reaction was stopped after 45 minutes at room temperature by the addition of 50 μL of 80 mM EDTA.

[2] = target: GSK3β (H350L) (Homo sapiens (Human), UniProt P49841); details: read-out: GSK3β Ki
Chain of GSK3β (H350L) (P49841 whole entry, stated change not applied): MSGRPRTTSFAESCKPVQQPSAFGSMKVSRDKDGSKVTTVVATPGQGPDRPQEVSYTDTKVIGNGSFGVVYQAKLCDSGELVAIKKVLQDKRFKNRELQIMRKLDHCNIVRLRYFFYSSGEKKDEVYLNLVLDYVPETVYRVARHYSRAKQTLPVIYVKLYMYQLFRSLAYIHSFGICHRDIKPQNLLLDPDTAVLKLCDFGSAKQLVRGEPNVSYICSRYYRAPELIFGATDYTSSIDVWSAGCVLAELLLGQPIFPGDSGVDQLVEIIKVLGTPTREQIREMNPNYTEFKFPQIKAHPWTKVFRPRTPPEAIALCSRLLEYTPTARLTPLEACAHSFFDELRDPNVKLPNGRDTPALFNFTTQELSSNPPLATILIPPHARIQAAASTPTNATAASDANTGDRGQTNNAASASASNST
Protocol: The assay was initiated with the addition of ATP, following 15 minutes pre-incubation of enzyme and inhibitor at room temperature in the reaction mixture. The reaction was stopped after 30 minutes at room temperature by the addition of 50 μL of 80 mM EDTA.

Structure (SMILES)	Ki [1]	Ki [2]
COc1ccc(CC(=O)Nc2cc([C@H]3CC[C@@H](OC(=O)N4CCC4(C)C)C3)[nH]n2)cn1 [Example 144]	0.1 nM	1.26 nM
Cc1ccc(CC(=O)Nc2cc([C@@H]3CC[C@H](OC(=O)N[C@H]4CC[C@H](O)CC4)C3)[nH]n2)nc1 [Example 549, (1S,3R)-3-(3-{[(5-methylpyridin-2-yl)acetyl]amino}-1H-pyrazol-5-yl)cyclopentyl (trans-4-hydroxycyclohexyl)carbamate]	0.9 nM	3.24 nM
C[C@H](CC(F)(F)F)NC(=O)O[C@@H]1CC[C@H](c2cc(NC(=O)Cc3cnn(C)c3)n[nH]2)C1 [Example 394, (1R,3S)-3-(3-{[(1-methyl-1H-pyrazol-4-yl)acetyl]amino}-1H-pyrazol-5-yl)cyclopentyl [(2R)-4,4,4-trifluorobutan-2-yl]carbamate]	0.42 nM	42.7 nM
CCCNC(=O)O[C@@H]1CC[C@H](c2cc(NC(=O)Cc3ccc4c(cnn4C)c3)n[nH]2)C1 [Example 54]	0.24 nM	9.25 nM
CC1(C)CCN1C(=O)O[C@@H]1CC[C@H](c2cc(NC(=O)Cc3ccccc3S(C)(=O)=O)n[nH]2)C1 [Example 142]	0.22 nM	17.7 nM
CC[C@H](C)NC(=O)O[C@@H]1CC[C@H](c2cc(NC(=O)Cc3cncc(OC)n3)n[nH]2)C1 [Example 348, (1R,3S)-3-(3-{[(6-methoxypyrazin-2-yl)acetyl]amino}-1H-pyrazol-5-yl)cyclopentyl (2S)-butan-2-ylcarbamate]	0.59 nM	54.1 nM
CC[C@H](C)NC(=O)O[C@@H]1CC[C@H](c2cc(NC(=O)Cc3cncc(C)n3)n[nH]2)C1 [Example 336, (1R,3S)-3-(3-{[(6-methylpyrazin-2-yl)acetyl]amino}-1H-pyrazol-5-yl)cyclopentyl (2S)-butan-2-ylcarbamate]	0.39 nM	53.5 nM
CC[C@H](C)NC(=O)O[C@@H]1CC[C@H](c2cc(NC(=O)c3cnnn3C)n[nH]2)C1 [Example 4, (1R,3S)-3-(3-{[(1-methyl-1H-1,2,3-triazol-5-yl)carbonyl]amino}-1H-pyrazol-5-yl)cyclopentyl (2S)-butan-2-ylcarbamate]	0.1 nM	110 nM
CC[C@H](C)NC(=O)O[C@@H]1CC[C@H](c2cc(NC(=O)Cc3ccc4ncc(C)n4n3)n[nH]2)C1 [Example 46]	0.18 nM	20.6 nM
Cn1cc(CC(=O)Nc2cc([C@H]3CC[C@@H](OC(=O)NCCC(F)(F)F)C3)[nH]n2)cn1 [Example 216, (1R,3S)-3-(3-{[(1-methyl-1H-pyrazol-4-yl)acetyl]amino}-1H-pyrazol-5-yl)cyclopentyl (3,3,3-trifluoropropyl)carbamate]	0.86 nM	28.2 nM
Cc1cnc(CC(=O)Nc2cc([C@H]3CC[C@@H](OC(=O)NC(C)(C)CC(F)(F)F)C3)[nH]n2)o1 [Example 95]	0.25 nM	32.2 nM
CCNC(=O)O[C@@H]1CC[C@H](c2cc(NC(=O)Cc3ccc4c(cnn4C)c3)n[nH]2)C1 [Example 3, (1R,3S)-3-(3-{[(1-methyl-1H-indazol-5-yl)acetyl]amino}-1H-pyrazol-5-yl)cyclopentyl ethylcarbamate]	0.34 nM	10 nM
Cc1ncc(CC(=O)Nc2cc([C@H]3CC[C@@H](OC(=O)N4CCC[C@@H]4C)C3)[nH]n2)s1 [Example 139]	0.21 nM	8.48 nM
CCCNC(=O)O[C@H]1CC[C@@H](c2cc(NC(=O)Cc3cc(C)no3)n[nH]2)C1 [Example 177, (1S,3R)-3-(3-{[(3-methyl-1,2-oxazol-5-yl)acetyl]amino}-1H-pyrazol-5-yl)cyclopentyl propylcarbamate]	0.43 nM	19 nM
CC(C)NC(=O)O[C@@H]1CC[C@H](c2cc(NC(=O)Cc3ccc4c(cnn4C)c3)n[nH]2)C1 [Example 55]	0.1 nM	10.4 nM
Cn1cc(CC(=O)Nc2cc([C@H]3CC[C@@H](OC(=O)NC4(C)CCC4)C3)[nH]n2)cn1 [Example 119]	0.13 nM	19.3 nM
Cc1cccc(CC(=O)Nc2cc([C@H]3CC[C@@H](OC(=O)NC4(C)CC4)C3)[nH]n2)n1 [Example 426, (1R,3S)-3-(3-{[(6-methylpyridin-2-yl)acetyl]amino}-1H-pyrazol-5-yl)cyclopentyl (1-methylcyclopropyl)carbamate]	0.53 nM	17 nM
CC[C@H](C)NC(=O)O[C@@H]1CC[C@H](c2cc(NC(=O)Cc3ccccc3S(=O)(=O)CC)n[nH]2)C1 [Example 40]	0.24 nM	64.5 nM
COc1ncc(CC(=O)Nc2cc([C@H]3CC[C@@H](OC(=O)NC4(C)CCOCC4)C3)[nH]n2)s1 [Example 509, (1R,3S)-3-(3-{[(2-methoxy-1,3-thiazol-5-yl)acetyl]amino}-1H-pyrazol-5-yl)cyclopentyl (4-methyltetrahydro-2H-pyran-4-yl)carbamate]	0.5 nM	30.2 nM
Cc1cnc(CC(=O)Nc2cc([C@H]3CC[C@@H](OC(=O)NC4(C)CC4)C3)[nH]n2)o1 [Example 5, (1R,3S)-3-(3-{[(5-methyl-1,3-oxazol-2-yl)acetyl]amino}-1H-pyrazol-5-yl)cyclopentyl (1-methylcyclopropyl)carbamate]	0.4 nM	39.4 nM
COc1cc(CC(=O)Nc2cc([C@@H]3CC[C@H](OC(=O)N[C@H]4CC[C@@H](O)CC4)C3)[nH]n2)ccn1 [Example 552, (1S,3R)-3-(3-{[(2-methoxypyridin-4-yl)acetyl]amino}-1H-pyrazol-5-yl)cyclopentyl (cis-4-hydroxycyclohexyl)carbamate]	0.29 nM	2.41 nM
COc1ccc(CC(=O)Nc2cc([C@H]3CC[C@@H](OC(=O)NC4(C)CC4)C3)[nH]n2)nc1 [Example 433, (1R,3S)-3-(3-{[(5-methoxypyridin-2-yl)acetyl]amino}-1H-pyrazol-5-yl)cyclopentyl (1-methylcyclopropyl)carbamate]	0.5 nM	17.1 nM
CC[C@H](C)NC(=O)O[C@@H]1CC[C@H](c2cc(NC(=O)Cc3ccccc3S(=O)(=O)NC)n[nH]2)C1 [Example 374, (1R,3S)-3-[3-({[2-(methylsulfamoyl)phenyl]acetyl}amino)-1H-pyrazol-5-yl]cyclopentyl (2S)-butan-2-ylcarbamate]	0.32 nM	10.8 nM

Continued, values first:

Ki [1]	Ki [2]	Structure (SMILES)
1.03 nM	5.18 nM	COc1ncc(CC(=O)Nc2cc([C@H]3CC[C@@H](OC(=O)N4CCOC[C@@H]4C)C3)[nH]n2)s1 [Example 646, (1R,3S)-3-(3-{[(2-methoxy-1,3-thiazol-5-yl)acetyl]amino}-1H-pyrazol-5-yl)cyclopentyl (3S)-3-methylmorpholine-4-carboxylate]
0.7 nM	> 191 nM	CCCNC(=O)O[C@H]1CC[C@@H](c2cc(Nc3ccc4c(n3)CC[C@@H]4N(C)C)n[nH]2)C1 [Example 192, (1S,3R)-3-(3-{[(5S)-5-(dimethylamino)-6,7-dihydro-5H-cyclopenta[b]pyridin-2-yl]amino}-1H-pyrazol-5-yl)cyclopentyl propylcarbamate]
0.38 nM	11.4 nM	CCCNC(=O)O[C@H]1CC[C@@H](c2cc(NC(=O)Cc3cnc(OC)s3)n[nH]2)C1 [Example 189, (1S,3R)-3-(3-{[(2-methoxy-1,3-thiazol-5-yl)acetyl]amino}-1H-pyrazol-5-yl)cyclopentyl propylcarbamate]
0.37 nM	10.1 nM	COc1ccc(CC(=O)Nc2cc([C@@H]3CC[C@H](OC(=O)N[C@H]4CC[C@@](C)(O)CC4)C3)[nH]n2)cc1 [Example 564, (1S,3R)-3-(3-{[(4-methoxyphenyl)acetyl]amino}-1H-pyrazol-5-yl)cyclopentyl (cis-4-hydroxy-4-methylcyclohexyl)carbamate]
0.85 nM	43.4 nM	CCNC(=O)O[C@@H]1CC[C@H](c2cc(NC(=O)Cc3cc(F)cc(F)c3)n[nH]2)C1 [Example 233, (1R,3S)-3-(3-{[(3,5-difluorophenyl)acetyl]amino}-1H-pyrazol-5-yl)cyclopentyl ethylcarbamate]
0.45 nM	4.97 nM	COc1cc(CC(=O)Nc2cc([C@H]3CC[C@@H](OC(=O)N4C[C@@](C)(O)[C@@H]4C)C3)[nH]n2)ccn1 [Example 625, (1R,3S)-3-(3-{[(2-methoxypyridin-4-yl)acetyl]amino}-1H-pyrazol-5-yl)cyclopentyl (2S,3R)-3-hydroxy-2,3-dimethylazetidine-1-carboxylate]
0.62 nM	14.3 nM	COCCn1nccc1C(=O)Nc1cc([C@H]2CC[C@@H](OC(=O)N3CC[C@@H]3C)C2)[nH]n1 [Example 594, (1R,3S)-3-[3-({[1-(2-methoxyethyl)-1H-pyrazol-5-yl]carbonyl}amino)-1H-pyrazol-5-yl]cyclopentyl (2S)-2-methylazetidine-1-carboxylate]
1.44 nM	8.58 nM	C[C@]1(O)CC[C@H](NC(=O)O[C@H]2CC[C@@H](c3cc(NC(=O)Cc4ccccc4)n[nH]3)C2)CC1 [Example 559, (1S,3R)-3-{3-[(phenylacetyl)amino]-1H-pyrazol-5-yl}cyclopentyl (trans-4-hydroxy-4-methylcyclohexyl)carbamate]
2.63 nM	40.9 nM	Cc1coc(CC(=O)Nc2cc([C@H]3CC[C@@H](OC(=O)NC(C)C)C3)[nH]n2)n1 [Example 272, (1R,3S)-3-(3-{[(4-methyl-1,3-oxazol-2-yl)acetyl]amino}-1H-pyrazol-5-yl)cyclopentyl propan-2-ylcarbamate]
0.58 nM	94.9 nM	CC[C@H](C)NC(=O)O[C@@H]1CC[C@H](c2cc(NC(=O)Cc3cnn(C)c3C)n[nH]2)C1 [Example 337, (1R,3S)-3-(3-{[(1,5-dimethyl-1H-pyrazol-4-yl)acetyl]amino}-1H-pyrazol-5-yl)cyclopentyl (2S)-butan-2-ylcarbamate]
0.99 nM	14.4 nM	Cc1cc(CC(=O)Nc2cc([C@H]3CC[C@@H](OC(=O)N4CCC[C@@H]4C)C3)[nH]n2)no1 [Example 634, (1R,3S)-3-(3-{[(5-methyl-1,2-oxazol-3-yl)acetyl]amino}-1H-pyrazol-5-yl)cyclopentyl (2S)-2-methylpyrrolidine-1-carboxylate]
